Laboratory results: the NIST ThermoML archive (doi:10.1016/j.jct.2017.01.011)

Assay: xn = mol fraction of the nth substance listed
Conditions: 100 kPa, Liquid; for speed of sound: Frequency=3 MHz, Single path-length method; for mass density: Vibrating tube method

OCC(O)CO [glycerol] + CO
Conditions	mass density, 283.15 K [kg/m3]	mass density, 293.15 K [kg/m3]	mass density, 303.15 K [kg/m3]	mass density, 313.15 K [kg/m3]	speed of sound, 283.15 K [m/s]	speed of sound, 293.15 K [m/s]	speed of sound, 303.15 K [m/s]	speed of sound, 313.15 K [m/s]
x2 = 0	1267	1261	1255	1248	1942.3	1922.9	1901	1879.3
x2 = 0.1003	1244	1238	1232	1225	1901.8	1873	1848.8	1826.1
x2 = 0.1997	1220	1213	1207	1200	1841.5	1816.1	1792.7	1770
x2 = 0.3002	1192	1186	1179	1172	1779.2	1755.3	1732.3	1709.5
x2 = 0.4011	1158	1152	1145	1138	1708.9	1684.6	1660.7	1637.1
x2 = 0.4999	1119	1112	1105	1098	1628.4	1604	1579.6	1555.3
x2 = 0.5998	1075	1068	1060	1053	1546.5	1521.1	1495.6	1470.4
x2 = 0.7	1024	1016	1009	1001	1457.7	1430.9	1404.2	1377.6
x2 = 0.8002	964	956	947	939	1364.5	1336.1	1307.8	1279.7
x2 = 0.8999	892	883	874	865	1265.5	1234.9	1204.5	1174.5
